Reference: patent US20260242843A1, “ASSAY SYSTEM FOR […] ANTIVIRAL AGENT USING INHIBITION OF VIRUS-DERIVED PROTEASE AS INDICATOR” (TOYAMA PREFECTURAL UNIVERSITY, priority 2023, published 2026)

What was measured:
IAPV protease = assay: Measurement of IAPV protease activity using purified enzyme (fluorescent peptide substrate); assay type: biochemical, Israeli acute paralysis virus (IAPV); conditions: inhibitors at final concentration of 1 mM, pre-incubated at 37° C. for 1 hour; fluorescence in absence of inhibitors = 100%
Procedure: RNA was extracted from the midgut of virus-infected honey bees using ISOGEN II (Nippon Gene Co., Ltd.), and the extracted RNA was reverse-transcripted using PrimeScript RT reagent Kit (Takara) to obtain midgut-derived cDNA. Subsequently, the midgut-derived cDNA was subjected to PCR reaction (30 cycles of 98° C. for 30 seconds, 60° C. for 30 seconds, and 68° C. for 2 minutes) using KOD FX Neo (TOYOBO Co., Ltd.) with IAPV Protease Primer-F1 (SEQ ID NO: 59) and IAPV Protease Primer-R (SEQ ID NO: 60). As a result, a cDNA fragment of IAPV protease was obtained, consisting of the base sequence of SEQ ID NO: 57 encoding the amino acid sequence of SEQ ID NO: 58. The cDNA fragment of the IAPV protease was subjected to restriction enzyme treatment with BamHI and HindIII. The expression vector pET21a (Merck) was also subjected to restriction enzyme treatment with BamHI and HindIII. The restriction enzyme-treated cDNA fragment of the IAPV protease and the restriction enzyme-treated pET21a DNA fragment were subjected to a ligation reaction at 16° C. for 1 hour using Ligation High Ver. 2 (TOYOBO Co., Ltd.) to join the vector and the cDNA fragment, and the ligation product was used to transform E. coli. Colony PCR was performed, and an expression vector containing the cDNA fragment of the IAPV protease was obtained. E. coli Rosseta-gami B (Merck) was transformed with the expression vector of the IAPV protease. A preculture was prepared in 50 ml of LB medium containing ampicillin, followed by subculturing in 500 ml of LB medium containing ampicillin. Then, the culture was grown until the absorbance at 600 nm reached 0.5, at which point isopropyl β-D-thiogalactopyranoside (IPTG) was added to a final concentration of 1 mM. The culture was then incubated at 15° C. for 24 hours. The culture was centrifuged (8000 rpm, 10 minutes, 4° C.) to collect E. coli cells. The collected E. coli cells were dissolved in 10 ml of a sonication buffer (50 mM Tris-HCl, pH 8.0; 50 mM NaCl; 1 mM EDTA; 1 mM DTT), and disrupted by ultrasonic disruption (sonication). The disruption solution was centrifuged (12000 rpm, 10 minutes, 4° C.) to obtain a supernatant of this bacterial cell disruption solution. The IAPV protease was then purified from the resulting supernatant to yield a purified protein solution. Purification was carried out by cation exchange chromatography using HiPrep SP XL 16/10 (Cytiva) with a 20 mM Tris-HCl (pH 7.5) buffer and a 20 mM Tris-HCl (pH 7.5) buffer containing 1 M NaCl, and by gel filtration chromatography using HiLoad 16/600 Superdex 200 (Cytiva) with a 50 mM phosphate buffer (pH 7.0) containing 0.15 M NaCl.
As a substrate for the measurement of IAPV protease activity, either Dnp-PNDIV DVTMQK(Nma)-NH2 or Nma-[…] (Dnp)-NH2, in which a peptide was linked to a fluorescent substrate, was synthesized and used. When the activity measurement substrate is cleaved by the protease, it emits fluorescence. The activity measurement substrate was prepared at a concentration of 20 μM in an assay buffer (50 mM citric acid buffer, pH 6.0; 150 mM NaCl; 1 mM EDTA; 1 mM DTT). The purified protein solution of the IAPV protease obtained in Example 10 was used as the enzyme solution. 50 μl of the assay buffer containing the activity measurement substrate was mixed with 50 μl of the enzyme solution, and the mixture was reacted at 37° C. for 30 minutes in a 96-well black plate, in the presence or absence of various inhibitors listed in Table 4. Fluorescence intensity was then measured using a TECAN fluorescence plate reader (Tecan Japan Co., Ltd.) at an excitation wavelength of 340 nm and a fluorescence emission wavelength of 440 nm. The various inhibitors were prepared at a final concentration of 1 mM and pre-incubated at 37° C. for 1 hour prior to the enzymatic reaction.

[1] = system: virus-infected honey bees; assay: Suppression of individual honey bee mortality by agent administration (aseptic in vivo agent evaluation rearing method); conditions: for viability compared to the control group: 100 μM in 50% sucrose solution, virus-infected honey bee population No. 2, FIG. 15
Procedure: A new aseptic in vivo agent evaluation rearing method for honey bees was established. Incubators and rearing boxes were sterilized with 70% ethanol after cleaning. Each hive box was populated with 30 to 35 honey bees. The honey bees were fed with a 50% sucrose solution (aseptically dissolved in sterile water) and a 50% sucrose solution containing pollen dissolved therein. The rearing temperature was maintained at 30° C. The 50% sucrose solutions were replaced daily, and the number of individual honey bees was measured at each replacement. Agents were administered dissolved in the 50% sucrose solutions. At the time when the viability had decreased to 50% or less of the initial level, total RNA was collected from the surviving individuals, and histochemical analyses were performed on the midgut and other tissues. Pharmacological analyses were conducted using the collected RNA, tissues, and blood.
E-64 ([(2S,3S)-3-carboxyoxirane-2-carbonyl]-L-leucine (4-guanidinobutyl)amide hemihydrate, manufactured by PEPTIDE INSTITUTE, INC.) was dissolved in a 50% sucrose solution at concentrations of 200 μM, 100 μM, and 50 μM. The resulting solutions were administered to honey bees in the honey bee populations Nos. 2 and 5, in which viral infection had been observed. Only 50% sucrose was administered to a control group (None). The E-64-containing solutions were replaced daily, and changes in the number of individual honey bees were measured at each replacement. FIGS. 9 and 10 show the results. Rearing was conducted using the aseptic in vivo agent evaluation rearing method, which has been described above.
E-64c (manufactured by PEPTIDE INSTITUTE, INC.) or E-64d (manufactured by PEPTIDE INSTITUTE, INC.) was dissolved in a 50% sucrose solution at a concentration of 100 μM. The resulting solutions were administered to honey bees in the honey bee population No. 2, in which viral infection had been observed. […] The solution containing E-64c or E-64d was replaced daily, and changes in the number of individual honey bees were measured at each replacement. […]

[2] = system: fusion protein of Maltose Binding Protein (MBP)-IAPV protease; assay: IAPV protease activity measurement using crude enzyme solution of expressed MBP-IAPV protease fusion protein; assay type: biochemical, Israeli acute paralysis virus (IAPV); conditions: in the presence of E-64, absence of E-64 = 100%
Procedure: Midgut-derived cDNA was obtained from virus-infected honey bees in the same manner as in Example 10 and then subjected to PCR reaction (30 cycles of 98° C. for 30 seconds, 60° C. for 30 seconds, and 68° C. for 2 minutes) using KOD FX Neo (TOYOBO Co., Ltd.) with IAPV Protease Primer-F2 (SEQ ID NO: 61) and IAPV Protease Primer-R (SEQ ID NO: 60). As a result, a cDNA fragment of IAPV protease was obtained, consisting of the base sequence of SEQ ID NO: 57 encoding the amino acid sequence of SEQ ID NO: 58. The cDNA fragment of the IAPV protease was subjected to restriction enzyme treatment with BamHI and HindIII. […] Then, the culture was grown until the absorbance at 600 nm reached 0.5, at which point IPTG was added to a final concentration of 1 mM. […]
Subsequently, using a crude enzyme solution of the expressed fusion protein of IAPV protease as the enzyme solution, the IAPV protease activity was measured using the same method as in Example 11, in the presence or absence of E-64.
The fluorescence intensity measured in the absence of E-64 was reduced by the addition of E-64. When the fluorescence intensity measured in the absence of E-64 is defined as 100% relative activity, the relative activity of IAPV protease calculated from the fluorescence intensity measured in the presence of E-64 was 9% (FIG. 14). […]

[3] = system: virus-infected honey bees; assay: Recovery from intestinal tract damage in honey bees (BPB administration test); assay type: in vivo; conditions: E-64 100 μM in 50% sucrose, reared 10 days; BPB 10 mg/ml for 24 hours; FIG. 13
Procedure: Virus-infected and uninfected honey bees were reared for 10 days while receiving 50% sucrose. During the rearing period, Bromophenol Blue (BPB) (FUJIFILM Wako Pure Chemical Corporation) was dissolved in a 50% sucrose solution at a concentration of 10 mg/ml and administered to the virus-infected and uninfected honey bees for 24 hours. When the viability of the virus-infected group had decreased to approximately 50%, relative to the number of individual honey bees before rearing set to 100%, BPB was administered to each group of honey bees. After BPB administration, blood was collected from honey bees (≥30 individuals), and the concentration of BPB in the blood was measured by absorbance at 500 nm using a microvolume spectrophotometer, NanoDrop One (ThermoFisher Scientific).
Virus-infected honey bees were divided into a control group (None) to which 50% sucrose was administered, and an administered group (E-64) to which a solution of E-64 (PEPTIDE INSTITUTE, INC.) dissolved at 100 μM in 50% sucrose was administered. The honey bees were reared for 10 days. […] After BPB administration, blood was collected from honey bees (≥30 individuals), and the concentration of BPB in the blood was measured by absorbance at 500 nm using a microvolume spectrophotometer, NanoDrop One (ThermoFisher Scientific).

Compound	Relative Activity (%) of IAPV protease (IAPV protease) [%]	other results
CCCNC(=O)[C@H]1O[C@@H]1C(=O)N[C@H](C(=O)N1CCC[C@H]1C(=O)OC)[C@@H](C)CC [CA074 methyl ester, [(2S,3S)-3-propylcarbamoyloxirane-2-carbonyl]-L-isoleucyl-L-proline methyl ester]	32	–
CCCNC(=O)[C@H]1O[C@@H]1C(=O)N[C@H](C(=O)N1CCC[C@H]1C(=O)O)[C@@H](C)CC [CA074, [(2S,3S)-3-propylcarbamoyloxirane-2-carbonyl]-L-isoleucyl-L-proline]	4	–
CC(C)CCNC(=O)[C@H](CC(C)C)NC(=O)[C@H]1O[C@@H]1C(=O)O [E-64c, [(2S,3S)-3-carboxyoxirane-2-carbonyl]-L-leucine (3-methylbutyl)amide]	22	viability compared to the control group [1]: higher viability compared to the control group
CCOC(=O)[C@H]1O[C@@H]1C(=O)N[C@@H](CC(C)C)C(=O)NCCC(C)C [E-64d, [(2S,3S)-3-ethoxycarbonyloxirane-2-carbonyl]-L-leucine (3-methylbutyl)amide]	23	viability compared to the control group [1]: higher viability compared to the control group
CCOC(=O)[C@H]1O[C@@H]1C(=O)N[C@@H](CC(C)C)C(=O)NCCc1ccc(O)cc1 [JPM-OEt]	17	–
O=C(O)c1cc2ccccc2s1 [TNCA, benzo[b]thiophene-2-carboxylic acid]	71	–
O=C(NC1CC1)C(=O)C(Cc1ccccc1)NC(=O)[C@H]1CCC(=O)N1Cc1ccccc1 (some centres unmarked) [alicapistat]	22	–
Cc1nc(-c2ccccc2F)c(C(=O)NC(Cc2ccccc2)C(=O)C(N)=O)o1 (centres unmarked) [dazcapistat]	29	–
[(2S,3S)-3-carboxyoxirane-2-carbonyl]-L-leucine (4-guanidinobutyl)amide hemihydrate [E-64]	5	individual honey bee mortality (viability) ([1]; E-64 at 200 μM, 100 μM, 50 μM in 50% sucrose solution, virus-infected honey bee populations Nos. 2 and 5, FIGS. 9 and 10): suppressed individual honey bee mortality; relative activity of IAPV protease [2]: 9%; concentration of BPB in the blood (absorbance at 500 nm) [3]: reduced the concentration of BPB in the blood
